Measurements taken from patent publication US20260053834A1, “COVALENT MODIFIERS OF AKT1 AND USES THEREOF” (Terremoto Biosciences, Inc., priority 2023, published 2026).

How the values were obtained:
[1] = tested on: LAPC4 prostate cancer cells, which express the AKT1 E17K allele; assay: Antiproliferative effects in LAPC4 cells (CellTiter Glo, 72 h); assay type: cell-based; settings: Homo sapiens, LAPC4, 72 h, read-out: LAPC4 proliferation IC50: GeoMean IC50
Method in brief: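 IC50 values come from Hill-equation fitting of luminescence (cellular ATP) after 72 h compound exposure. Treated wells held 1,000 cells each, with compound delivered as DMSO dilutions. Culture medium was IMDM plus 12% FBS.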

AKT1 E17K = molecular target: T1, AKT1 E17K (Homo sapiens, UniProt P31749, E17K); assay: Live cell target engagement by NanoBRET competitive probe displacement, AKT1 E17K; assay type: binding; settings: transfected HEK293 cells, 2 h at 37° C., read-out: AKT1 E17K IC50: GeoMean IC50
T1 construct: expressed in transfected cells; host or cells: HEK293
T1 sequence (P31749 whole entry E17K): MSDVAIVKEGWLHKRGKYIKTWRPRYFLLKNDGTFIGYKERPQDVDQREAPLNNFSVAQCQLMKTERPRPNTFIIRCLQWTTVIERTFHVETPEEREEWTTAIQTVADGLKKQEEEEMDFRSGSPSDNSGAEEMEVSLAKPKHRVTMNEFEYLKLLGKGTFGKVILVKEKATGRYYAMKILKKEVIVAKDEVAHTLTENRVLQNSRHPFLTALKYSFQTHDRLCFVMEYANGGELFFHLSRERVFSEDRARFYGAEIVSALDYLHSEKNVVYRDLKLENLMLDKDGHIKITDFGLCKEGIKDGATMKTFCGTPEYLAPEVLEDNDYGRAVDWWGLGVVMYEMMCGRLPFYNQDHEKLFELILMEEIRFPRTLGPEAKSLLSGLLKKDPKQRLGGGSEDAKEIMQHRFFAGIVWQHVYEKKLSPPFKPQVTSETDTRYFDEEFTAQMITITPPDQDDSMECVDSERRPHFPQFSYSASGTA

AKT1 WT = molecular target: T2, AKT1 WT (Homo sapiens, UniProt P31749); assay: Live cell target engagement by NanoBRET competitive probe displacement, AKT1 WT; assay type: binding; settings: transfected HEK293 cells, 2 h at 37° C., read-out: AKT1 WT IC50: GeoMean IC50
T2 construct: expressed in transfected cells; host or cells: HEK293
T2 sequence (P31749 whole entry): as the sequence (P31749 whole entry E17K) above, with K17E counted along it

AKT2 = molecular target: T3, AKT2 (Homo sapiens, UniProt P31751); assay: Live cell target engagement by NanoBRET competitive probe displacement, AKT2; assay type: binding; settings: transfected HEK293 cells, 2 h at 37° C., read-out: AKT2 IC50: GeoMean IC50
T3 construct: expressed in transfected cells; host or cells: HEK293
T3 sequence (P31751 whole entry): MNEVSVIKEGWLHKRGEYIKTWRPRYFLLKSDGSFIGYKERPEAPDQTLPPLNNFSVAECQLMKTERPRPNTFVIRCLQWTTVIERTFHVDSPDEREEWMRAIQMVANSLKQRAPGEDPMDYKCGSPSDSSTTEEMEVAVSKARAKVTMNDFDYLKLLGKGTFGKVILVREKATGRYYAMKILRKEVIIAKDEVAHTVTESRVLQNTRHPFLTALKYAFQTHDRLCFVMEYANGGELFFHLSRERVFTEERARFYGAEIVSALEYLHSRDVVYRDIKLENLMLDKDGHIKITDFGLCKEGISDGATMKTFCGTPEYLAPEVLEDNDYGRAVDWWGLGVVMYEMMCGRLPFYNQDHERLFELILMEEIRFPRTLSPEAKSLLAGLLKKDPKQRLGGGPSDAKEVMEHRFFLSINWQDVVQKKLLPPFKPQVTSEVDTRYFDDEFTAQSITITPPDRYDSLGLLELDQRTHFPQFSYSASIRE

Structure (SMILES)	IC50 [1] [nM]	IC50 (AKT1 E17K) [nM]	IC50 (AKT1 WT) [nM]	IC50 (AKT2) [nM]
Nc1ncccc1-c1nc2ccc(Cl)nc2n1-c1ccc2c(c1)CC[C@@H]2NC(=O)c1ccc(O)c(C=O)c1 [Example 136, N-[(1S)-5-[2-(2-aminopyridin-3-yl)-5-chloroimidazo[4,5-b]pyridin-3-yl]-2,3-dihydro-1H-inden-1-yl]-3-formyl-4-hydroxybenzamide]	100 to 2000	10 to 100	100 to 2000	≥ 2000
Cn1ccnc1Nc1ccc(C(=O)N[C@H]2CCc3cc(-n4c(-c5cccnc5N)nc5ccc(-n6cccn6)nc54)ccc32)cc1C=O [Example 141, (S)—N-(5-(2-(2-aminopyridin-3-yl)-5-(1H-pyrazol-1-yl)-3H-imidazo[4,5-b]pyridin-3-yl)-2,3-dihydro-1H-inden-1-yl)-3-formyl-4-((1-methyl-1H-imidazol-2-yl)amino)benzamide]	100 to 2000	100 to 2000	10 to 100	100 to 2000
Nc1ncccc1-c1nc2ccc(-n3cccn3)nc2n1-c1ccc2c(c1)CC[C@@H]2NC(=O)c1cccc(C=O)c1 [Example 142, (S)—N-(5-(2-(2-aminopyridin-3-yl)-5-(1H-pyrazol-1-yl)-3H-imidazo[4,5-b]pyridin-3-yl)-2,3-dihydro-1H-inden-1-yl)-3-formylbenzamide]	100 to 2000	10 to 100	< 10	10 to 100
Nc1ncccc1-c1nc2ccc(-n3cccn3)nc2n1-c1ccc2c(c1)CC[C@@H]2NC(=O)c1csc(C=O)n1 [Example 143, (S)—N-(5-(2-(2-aminopyridin-3-yl)-5-(1H-pyrazol-1-yl)-3H-imidazo[4,5-b]pyridin-3-yl)-2,3-dihydro-1H-inden-1-yl)-2-formylthiazole-4-carboxamide]	100 to 2000	100 to 2000	100 to 2000	100 to 2000
C#Cc1cc(O)c(C=O)cc1C(=O)N[C@H]1CCc2cc(-n3c(-c4cccnc4N)nc4ccc(-n5cccn5)nc43)ccc21 [Example 145, N-[(1S)-5-[2-(2-aminopyridin-3-yl)-5-(pyrazol-1-yl)imidazo[4,5-b]pyridin-3-yl]-2,3-dihydro-1H-inden-1-yl]-2-ethynyl-5-formyl-4-hydroxybenzamide]	100 to 2000	10 to 100	10 to 100	100 to 2000
Nc1ncccc1-c1nc2ccc(-c3ncc(C(F)F)s3)nc2n1-c1ccc2c(c1)CC[C@@H]2NC(=O)c1ccc(O)c(C=O)c1 [Example 146, (S)—N-(5-(2-(2-aminopyridin-3-yl)-5-(5-(difluoromethyl)thiazol-2-yl)-3H-imidazo[4,5-b]pyridin-3-yl)-2,3-dihydro-1H-inden-1-yl)-3-formyl-4-hydroxybenzamide]	100 to 2000	10 to 100	100 to 2000	100 to 2000
Nc1ncccc1-c1nc2ccc(-n3cccn3)nc2n1-c1ccc2c(c1)CC[C@@H]2Nc1n[nH]c2c(C=O)cccc12 [Example 148, 3-{[(1S)-5-[2-(2-aminopyridin-3-yl)-5-(pyrazol-1-yl)imidazo[4,5-b]pyridin-3-yl]-2,3-dihydro-1H-inden-1-yl]amino}-1H-indazole-7-carbaldehyde]	100 to 2000	10 to 100	100 to 2000	100 to 2000
Cc1cc(O)c(C=O)cc1C(=O)N[C@H]1CCc2cc(-n3c(-c4cccnc4N)nc4ccc(-n5cccn5)nc43)ccc21 [Example 149, N-[(1S)-5-[2-(2-aminopyridin-3-yl)-5-(pyrazol-1-yl)imidazo[4,5-b]pyridin-3-yl]-2,3-dihydro-1H-inden-1-yl]-5-formyl-4-hydroxy-2-methylbenzamide]	100 to 2000	10 to 100	100 to 2000	100 to 2000
COCc1cnn(-c2ccc3nc(-c4cccnc4N)n(-c4ccc5c(c4)CC[C@@H]5NC(=O)c4cc(C=O)c(O)cc4F)c3n2)c1 [Example 152, (S)—N-(5-(2-(2-aminopyridin-3-yl)-5-(4-(methoxymethyl)-1H-pyrazol-1-yl)-3H-imidazo[4,5-b]pyridin-3-yl)-2,3-dihydro-1H-inden-1-yl)-2-fluoro-5-formyl-4-hydroxybenzamide]	100 to 2000	10 to 100	100 to 2000	100 to 2000

The remaining lines, values ahead:

IC50 [1] [nM]	IC50 (AKT1 E17K) [nM]	IC50 (AKT1 WT) [nM]	IC50 (AKT2) [nM]	Structure (SMILES)
100 to 2000	10 to 100	100 to 2000	100 to 2000	Nc1ccn(-c2ccc3nc(-c4cccnc4N)n(-c4ccc5c(c4)CC[C@@H]5NC(=O)c4ccc(O)c(C=O)c4)c3n2)n1 [Example 134, N-[(1S)-5-[5-(3-aminopyrazol-1-yl)-2-(2-aminopyridin-3-yl)imidazo[4,5-b]pyridin-3-yl]-2,3-dihydro-1H-inden-1-yl]-3-formyl-4-hydroxybenzamide]
10 to 100	10 to 100	10 to 100	100 to 2000	Nc1ncccc1-c1nc2ccc(-n3ccc(F)n3)nc2n1-c1ccc2c(c1)CC[C@@H]2NC(=O)c1cc(C=O)c(O)cc1F [Example 135, N-[(1S)-5-[2-(2-aminopyridin-3-yl)-5-(3-fluoropyrazol-1-yl)imidazo[4,5-b]pyridin-3-yl]-2,3-dihydro-1H-inden-1-yl]-2-fluoro-5-formyl-4-hydroxybenzamide]
10 to 100	< 10	< 10	< 10	Nc1ncccc1-c1nc2ccc(-c3ccccc3)nc2n1-c1ccc2c(c1)CC[C@@H]2NC(=O)c1cc(C=O)c2[nH]nnc2c1 [Example 137, N-[(1S)-5-[2-(2-aminopyridin-3-yl)-5-phenylimidazo[4,5-b]pyridin-3-yl]-2,3-dihydro-1H-inden-1-yl]-7-formyl-1H-1,2,3-benzotriazole-5-carboxamide]
10 to 100	10 to 100	100 to 2000	100 to 2000	Nc1ncccc1-c1nc2ccc(-n3cc(CO)cn3)nc2n1-c1ccc2c(c1)CC[C@@H]2NC(=O)c1cc(C=O)c(O)cc1F [Example 138, (S)—N-(5-(2-(2-aminopyridin-3-yl)-5-(4-(hydroxymethyl)-1H-pyrazol-1-yl)-3H-imidazo[4,5-b]pyridin-3-yl)-2,3-dihydro-1H-inden-1-yl)-2-fluoro-5-formyl-4-hydroxybenzamide]
< 10	< 10	< 10	10 to 100	Nc1ncccc1-c1nc2ccc(-c3nccs3)nc2n1-c1ccc2c(c1)CC[C@@H]2NC(=O)c1cc(C=O)c(O)c(F)c1F [Example 140, (S)—N-(5-(2-(2-aminopyridin-3-yl)-5-(thiazol-2-yl)-3H-imidazo[4,5-b]pyridin-3-yl)-2,3-dihydro-1H-inden-1-yl)-2,3-difluoro-5-formyl-4-hydroxybenzamide]
10 to 100	10 to 100	10 to 100	10 to 100	Nc1ncccc1-c1nc2ccc(-c3nccs3)nc2n1-c1ccc2c(c1)CC[C@@H]2NC(=O)c1cc(C=O)c(O)cc1F [Example 144, N-[(1S)-5-[2-(2-aminopyridin-3-yl)-5-(1,3-thiazol-2-yl)imidazo[4,5-b]pyridin-3-yl]-2,3-dihydro-1H-inden-1-yl]-2-fluoro-5-formyl-4-hydroxybenzamide]
10 to 100	10 to 100	10 to 100	100 to 2000	Nc1ncccc1-c1nc2ccc(-c3nc(C(F)F)cs3)nc2n1-c1ccc2c(c1)CC[C@@H]2NC(=O)c1ccc(O)c(C=O)c1 [Example 147, N-[(1S)-5-[2-(2-aminopyridin-3-yl)-5-[4-(difluoromethyl)-1,3-thiazol-2-yl]imidazo[4,5-b]pyridin-3-yl]-2,3-dihydro-1H-inden-1-yl]-3-formyl-4-hydroxybenzamide]
10 to 100	10 to 100	10 to 100	100 to 2000	Nc1ncccc1-c1nc2ccc(-c3ncco3)nc2n1-c1ccc2c(c1)CC[C@@H]2NC(=O)c1cc(C=O)c(O)c(F)c1F [Example 150, N-[(1S)-5-[2-(2-aminopyridin-3-yl)-5-(1,3-oxazol-2-yl)imidazo[4,5-b]pyridin-3-yl]-2,3-dihydro-1H-inden-1-yl]-2,3-difluoro-5-formyl-4-hydroxybenzamide]
10 to 100	< 10	10 to 100	100 to 2000	Nc1ncccc1-c1nc2ccc(-c3ncco3)nc2n1-c1ccc2c(c1)CC[C@@H]2NC(=O)c1cc(C=O)c(O)cc1F [Example 151, N-[(1S)-5-[2-(2-aminopyridin-3-yl)-5-(1,3-oxazol-2-yl)imidazo[4,5-b]pyridin-3-yl]-2,3-dihydro-1H-inden-1-yl]-2-fluoro-5-formyl-4-hydroxybenzamide]
10 to 100	10 to 100	10 to 100	10 to 100	Cc1cc(-n2cccn2)nc2c1nc(-c1cccnc1N)n2-c1ccc2c(c1)CC[C@@H]2NC(=O)c1cc(C=O)c(O)c(F)c1F [Example 153, (S)—N-(5-(2-(2-aminopyridin-3-yl)-7-methyl-5-(1H-pyrazol-1-yl)-3H-imidazo[4,5-b]pyridin-3-yl)-2,3-dihydro-1H-inden-1-yl)-2,3-difluoro-5-formyl-4-hydroxybenzamide]
10 to 100	< 10	10 to 100	100 to 2000	CN(C)S(=O)(=O)Nc1ccc(C(=O)N[C@H]2CCc3cc(-n4c(-c5cccnc5N)nc5ccc(-n6cccn6)nc54)ccc32)cc1C=O [Example 154, N-[(1S)-5-[2-(2-aminopyridin-3-yl)-5-(pyrazol-1-yl)imidazo[4,5-b]pyridin-3-yl]-2,3-dihydro-1H-inden-1-yl]-4-[(dimethylsulfamoyl)amino]-3-formylbenzamide]
